Assay results published in patent US4725683A, “Fluorophenoxyphenoxypropionates and derivatives thereof” (The Dow Chemical Company, priority 1985, dated 1988).

What was measured:
Assay in all cases: Selective postemergence, track sprayer
Format in all cases: in vivo
Barnyardgrass = test system: Barnyardgrass
Protocol: (§1) Representative compositions of the present invention were evaluated for the postemergence control of species of plants listed in Table A. In these evaluations, pots of the plant species listed in Table A, grown to a height of about 10 cms, were used. Aqueous spray compositions, containing various amounts of 2-[4-(2-fluoro-4-trifluoromethylphenoxy)-phenoxy]propionic acid methy ester, i.e., 125 ppm, 62.5 ppm, 31.25 ppm, 15.6 ppm, 7.8 ppm and 3.9 ppm, respectively, were applied to separate pots. The spray compositions were made by mixing the active ingredient in acetone to 1/2 the final volume, i.e., twice the final concentration. An equal amount of water was added to the active ingredient/acetone mixture wherein the water contained 0.1 percent by weight of TWEEN® 200 surfactant. The application to the plants was made to the point of run-off and was carried out with conventional spraying equipment. Other pots were sprayed with similar compositions containing no toxicant to serve as controls. Thereafter, the pots were maintained under conditions conducive for plant growth. Two weeks after treatment, the pots were examined for plant growth and evaluated on a scale of 0 to 100 where 0 represents no effect and 100 represents complete kill. The results of the examination of the treated pots are set forth below in Table A.
(§2) To further define the selective postemergence herbicidal characteristics of compounds of the present invention, chemicals were applied to additional species of grasses as listed in Table F. Chemicals evaluated were 2-[4-(4-bromo-2-fluorophenoxy)phenoxy]propionic acid methyl ester and its R isomer. Treatment conditions were similar to those described in Example A except that chemicals were delivered through a track sprayer set to deliver the appropriate dosages in 280.6 L/hectare of water containing 0.1% Tween-20 surfactant.

Blackgrass = test system: Blackgrass
Protocol: as §1, §2

Downey Brome = test system: Downey Brome
Protocol: as §1, §2

Fall Panicum = test system: Fall Panicum
Protocol: as §1, §2

Giant Foxtail = test system: Giant Foxtail
Protocol: as §1, §2

Goosegrass = test system: Goosegrass
Protocol: as §1, §2

Green Foxtail = test system: Green Foxtail
Protocol: as §1, §2

Red Top = test system: Red Top
Protocol: as §1, §2

Tall Fescue = test system: Tall Fescue
Protocol: as §1, §2

Wheat = test system: Wheat
Protocol: as §1, §2

Wild Oats = test system: Wild Oats
Protocol: as §1, §2

Wild Proso Millet = test system: Wild Proso Millet
Protocol: as §1, §2

Yellow Foxtail = test system: Yellow Foxtail
Protocol: as §1, §2

Measured: Percent Control

COC(=O)C(C)Oc1ccc(Oc2ccc(Br)cc2F)cc1 (racemic) [Example 4-Bromo-, 2-[4-(4-bromo-2-fluorophenoxy)phenoxy]propionic acid methyl ester]
10%: Tall Fescue; 0.0023 kgs/hectare | Wheat; 0.14 kgs/hectare
40%: Barnyardgrass; 0.0011 kgs/hectare | Wheat; 0.28 kgs/hectare | Wild Oats; 0.035 kgs/hectare | Wild Oats; 0.07 kgs/hectare | Yellow Foxtail; 0.009 kgs/hectare
90%: Green Foxtail; 0.0045 kgs/hectare | Green Foxtail; 0.009 kgs/hectare | Red Top; 0.14 kgs/hectare | Tall Fescue; 0.14 kgs/hectare | Wild Oats; 0.28 kgs/hectare
20%: Fall Panicum; 0.0023 kgs/hectare | Goosegrass; 0.009 kgs/hectare | Green Foxtail; 0.0023 kgs/hectare | Red Top; 0.009 kgs/hectare | Tall Fescue; 0.0045 kgs/hectare | Tall Fescue; 0.009 kgs/hectare | Wild Proso Millet; 0.0011 kgs/hectare | Wild Proso Millet; 0.0023 kgs/hectare
50%: Blackgrass; 0.0023 kgs/hectare | Blackgrass; 0.0045 kgs/hectare | Fall Panicum; 0.0045 kgs/hectare | Red Top; 0.035 kgs/hectare | Wheat; 0.56 kgs/hectare
0%: Downey Brome; 0.0011 kgs/hectare | Downey Brome; 0.0023 kgs/hectare | Downey Brome; 0.0045 kgs/hectare | Downey Brome; 0.009 kgs/hectare | Downey Brome; 0.018 kgs/hectare | Downey Brome; 0.035 kgs/hectare | Downey Brome; 0.07 kgs/hectare | Downey Brome; 0.14 kgs/hectare | Downey Brome; 0.28 kgs/hectare | Downey Brome; 0.56 kgs/hectare | Fall Panicum; 0.0011 kgs/hectare | Goosegrass; 0.0011 kgs/hectare | Goosegrass; 0.0023 kgs/hectare | Green Foxtail; 0.0011 kgs/hectare | Red Top; 0.0011 kgs/hectare | Red Top; 0.0023 kgs/hectare | Red Top; 0.0045 kgs/hectare | Tall Fescue; 0.0011 kgs/hectare | Wheat; 0.0011 kgs/hectare | Wheat; 0.0023 kgs/hectare | Wheat; 0.0045 kgs/hectare | Wheat; 0.009 kgs/hectare | Wheat; 0.018 kgs/hectare | Wheat; 0.035 kgs/hectare | Wheat; 0.07 kgs/hectare | Wild Oats; 0.0011 kgs/hectare | Wild Oats; 0.0023 kgs/hectare | Wild Oats; 0.0045 kgs/hectare | Wild Oats; 0.009 kgs/hectare | Yellow Foxtail; 0.0011 kgs/hectare | Yellow Foxtail; 0.0023 kgs/hectare | Yellow Foxtail; 0.0045 kgs/hectare
100%: Barnyardgrass; 0.0045 kgs/hectare | Barnyardgrass; 0.009 kgs/hectare | Barnyardgrass; 0.035 kgs/hectare | Barnyardgrass; 0.07 kgs/hectare | Barnyardgrass; 0.14 kgs/hectare | Barnyardgrass; 0.28 kgs/hectare | Barnyardgrass; 0.56 kgs/hectare | Blackgrass; 0.009 kgs/hectare | Blackgrass; 0.035 kgs/hectare | Blackgrass; 0.07 kgs/hectare | Blackgrass; 0.14 kgs/hectare | Blackgrass; 0.28 kgs/hectare | Blackgrass; 0.56 kgs/hectare | Fall Panicum; 0.035 kgs/hectare | Fall Panicum; 0.14 kgs/hectare | Fall Panicum; 0.28 kgs/hectare | Fall Panicum; 0.56 kgs/hectare | Giant Foxtail; 0.0011 kgs/hectare | Giant Foxtail; 0.0023 kgs/hectare | Giant Foxtail; 0.0045 kgs/hectare | Giant Foxtail; 0.009 kgs/hectare | Giant Foxtail; 0.035 kgs/hectare | Giant Foxtail; 0.14 kgs/hectare | Giant Foxtail; 0.28 kgs/hectare | Giant Foxtail; 0.56 kgs/hectare | Goosegrass; 0.07 kgs/hectare | Goosegrass; 0.14 kgs/hectare | Goosegrass; 0.28 kgs/hectare | Goosegrass; 0.56 kgs/hectare | Green Foxtail; 0.035 kgs/hectare | Green Foxtail; 0.07 kgs/hectare | Green Foxtail; 0.14 kgs/hectare | Green Foxtail; 0.28 kgs/hectare | Green Foxtail; 0.56 kgs/hectare | Red Top; 0.28 kgs/hectare | Red Top; 0.56 kgs/hectare | Wild Oats; 0.56 kgs/hectare | Wild Proso Millet; 0.035 kgs/hectare | Wild Proso Millet; 0.07 kgs/hectare | Wild Proso Millet; 0.14 kgs/hectare | Wild Proso Millet; 0.28 kgs/hectare | Wild Proso Millet; 0.56 kgs/hectare | Yellow Foxtail; 0.07 kgs/hectare | Yellow Foxtail; 0.14 kgs/hectare | Yellow Foxtail; 0.28 kgs/hectare | Yellow Foxtail; 0.56 kgs/hectare
80%: Fall Panicum; 0.009 kgs/hectare | Goosegrass; 0.035 kgs/hectare | Red Top; 0.07 kgs/hectare | Wild Proso Millet; 0.009 kgs/hectare | Yellow Foxtail; 0.035 kgs/hectare
95%: Tall Fescue; 0.28 kgs/hectare | Tall Fescue; 0.56 kgs/hectare
30%: Blackgrass; 0.0011 kgs/hectare | Goosegrass; 0.0045 kgs/hectare
60%: Tall Fescue; 0.035 kgs/hectare
70%: Barnyardgrass; 0.0023 kgs/hectare | Wild Oats; 0.14 kgs/hectare | Wild Proso Millet; 0.0045 kgs/hectare
